Results published in ChEMBL document CHEMBL1201862, “PubChem BioAssay data set” (2004).
Each block holds one molecule with its values, some of them ahead of it. Activity calls are given as the source filed them.

Experiments:
Cytochrome P450 2C19 = Cytochrome P450 2C19 (Homo sapiens, UniProt P33261); test: Cytochrome panel assay with activity outcomes. Panel member name: p450-cyp2c19 Compounds with AC50 equal or less than 10 uM are considered active; type: functional
Cytochrome P450 2D6 = Cytochrome P450 2D6 (Homo sapiens, UniProt P10635);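 note: CYP2D6 member of a cytochrome P450 panel assay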
Sequence of Cytochrome P450 2D6 (P10635 whole entry): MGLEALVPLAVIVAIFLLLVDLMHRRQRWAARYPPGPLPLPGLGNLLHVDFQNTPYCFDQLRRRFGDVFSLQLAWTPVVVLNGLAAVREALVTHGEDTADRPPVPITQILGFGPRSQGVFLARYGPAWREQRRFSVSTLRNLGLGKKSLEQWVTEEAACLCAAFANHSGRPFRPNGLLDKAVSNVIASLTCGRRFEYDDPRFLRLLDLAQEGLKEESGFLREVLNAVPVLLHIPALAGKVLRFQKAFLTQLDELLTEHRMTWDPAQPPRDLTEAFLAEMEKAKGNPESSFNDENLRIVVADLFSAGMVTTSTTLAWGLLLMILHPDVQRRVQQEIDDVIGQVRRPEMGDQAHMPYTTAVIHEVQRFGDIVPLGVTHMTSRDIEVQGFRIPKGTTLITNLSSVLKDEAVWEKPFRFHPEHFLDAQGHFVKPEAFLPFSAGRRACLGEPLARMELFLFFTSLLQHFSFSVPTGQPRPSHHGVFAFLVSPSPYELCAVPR

HEK293 [1] = test: cells; conditions: Homo sapiens
HEK293 [2] = test: cells; conditions: Homo sapiens; remark: listed apart in the source
Mu-type opioid receptor = Mu-type opioid receptor (Homo sapiens, UniProt P35372); test: (§1) Counterscreen for agonists of heterodimerization of the mu 1 (OPRM1) and delta 1 (OPRD1) opioid receptors: Luminescence-based cell-based high throughput dose response assay to identify agonists of OPRM1 homodimerization.; type: functional
Sequence of Mu-type opioid receptor (P35372 whole entry): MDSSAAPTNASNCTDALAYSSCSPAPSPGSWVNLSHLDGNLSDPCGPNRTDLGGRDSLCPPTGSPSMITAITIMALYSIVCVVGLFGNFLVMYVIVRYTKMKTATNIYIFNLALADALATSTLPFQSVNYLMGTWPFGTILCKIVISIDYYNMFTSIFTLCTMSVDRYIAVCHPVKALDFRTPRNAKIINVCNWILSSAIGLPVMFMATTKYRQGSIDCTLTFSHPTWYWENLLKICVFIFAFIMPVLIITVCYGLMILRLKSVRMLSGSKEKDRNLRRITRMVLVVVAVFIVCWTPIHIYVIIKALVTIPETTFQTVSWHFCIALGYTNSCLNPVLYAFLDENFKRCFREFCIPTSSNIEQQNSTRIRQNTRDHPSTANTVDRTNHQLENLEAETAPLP

[3] = molecular target: T1, Short transient receptor potential channel 4 (Mus musculus, UniProt Q9QUQ5); test: mouse TRPC4 channel activators, dose response, cell-based, HEK293 TRPC4/mu-opioid, Fluo-4 calcium (AID 434937); type: functional
T1 sequence (Q9QUQ5 whole entry): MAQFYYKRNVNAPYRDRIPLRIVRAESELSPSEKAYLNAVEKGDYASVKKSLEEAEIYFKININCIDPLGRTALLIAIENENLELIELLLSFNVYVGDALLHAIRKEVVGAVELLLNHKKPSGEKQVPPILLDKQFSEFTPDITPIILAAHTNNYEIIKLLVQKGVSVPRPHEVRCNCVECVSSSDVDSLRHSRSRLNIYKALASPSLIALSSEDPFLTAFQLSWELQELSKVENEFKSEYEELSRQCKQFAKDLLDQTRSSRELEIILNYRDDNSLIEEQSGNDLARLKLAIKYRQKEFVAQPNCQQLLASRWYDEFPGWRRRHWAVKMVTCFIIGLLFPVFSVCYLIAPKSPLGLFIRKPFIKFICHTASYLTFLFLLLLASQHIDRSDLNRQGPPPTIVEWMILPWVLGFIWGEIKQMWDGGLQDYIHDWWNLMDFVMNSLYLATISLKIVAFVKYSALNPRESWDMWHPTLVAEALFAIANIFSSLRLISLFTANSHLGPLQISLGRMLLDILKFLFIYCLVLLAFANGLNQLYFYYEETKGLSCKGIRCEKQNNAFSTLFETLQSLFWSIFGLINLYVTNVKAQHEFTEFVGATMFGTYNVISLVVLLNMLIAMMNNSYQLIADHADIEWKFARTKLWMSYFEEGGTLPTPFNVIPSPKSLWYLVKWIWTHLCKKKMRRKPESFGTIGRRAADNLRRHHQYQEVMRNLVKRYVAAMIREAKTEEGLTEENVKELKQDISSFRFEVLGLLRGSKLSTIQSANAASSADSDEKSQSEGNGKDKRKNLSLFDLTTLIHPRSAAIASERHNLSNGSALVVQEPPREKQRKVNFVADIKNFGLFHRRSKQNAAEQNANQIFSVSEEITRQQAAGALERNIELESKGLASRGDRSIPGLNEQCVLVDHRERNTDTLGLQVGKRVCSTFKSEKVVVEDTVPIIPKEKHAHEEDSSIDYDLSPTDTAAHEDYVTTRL

[4] = molecular target: Delta-type opioid receptor (Homo sapiens, UniProt P41143); test: as §1, with “of OPRD1” for “of OPRM1”, “homodimerization. [Related pubchem assays (depositor defined):AID504326, AID504355, AID504692, AID504904, AID504905]” for “homodimerization.”; type: functional
Sequence of Delta-type opioid receptor (P41143 whole entry): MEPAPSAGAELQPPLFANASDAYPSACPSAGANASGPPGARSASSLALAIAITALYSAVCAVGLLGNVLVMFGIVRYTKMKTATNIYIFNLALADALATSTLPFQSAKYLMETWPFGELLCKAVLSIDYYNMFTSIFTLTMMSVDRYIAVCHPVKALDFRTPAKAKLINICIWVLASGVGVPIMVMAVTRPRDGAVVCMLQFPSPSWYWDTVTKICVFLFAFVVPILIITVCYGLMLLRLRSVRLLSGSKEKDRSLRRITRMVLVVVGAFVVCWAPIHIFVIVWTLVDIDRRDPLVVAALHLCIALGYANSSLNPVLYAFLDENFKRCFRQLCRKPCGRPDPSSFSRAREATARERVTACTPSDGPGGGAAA

[5] = molecular target: 5-hydroxytryptamine receptor 5A (Homo sapiens, UniProt P47898); test: Counterscreen for agonists of OPRM1-OPRD1 heterodimerization: luminescence-based cell-based high throughput dose response assay to identify agonists of 5-hydroxytryptamine (serotonin) 5A receptor (HTR5A). [Related pubchem assays (depositor defined):AID504326, AID504355, AID504692, AID504904, AID504905]; type: functional
Sequence of 5-hydroxytryptamine receptor 5A (P47898 whole entry): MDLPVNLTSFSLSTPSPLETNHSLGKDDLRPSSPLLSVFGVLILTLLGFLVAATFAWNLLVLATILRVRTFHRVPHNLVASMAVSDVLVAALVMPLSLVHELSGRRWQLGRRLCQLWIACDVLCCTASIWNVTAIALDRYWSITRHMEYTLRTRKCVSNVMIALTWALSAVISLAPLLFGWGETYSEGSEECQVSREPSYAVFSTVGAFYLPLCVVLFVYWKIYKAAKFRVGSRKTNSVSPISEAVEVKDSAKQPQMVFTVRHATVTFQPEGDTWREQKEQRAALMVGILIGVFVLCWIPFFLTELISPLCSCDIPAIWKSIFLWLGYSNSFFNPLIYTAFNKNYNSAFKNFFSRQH

CAAX prenyl protease 2 = CAAX prenyl protease 2 (Homo sapiens, UniProt Q9Y256); test: human Rce1 protease inhibitors, dose response, biochemical, yeast membranes, quenched-peptide fluorescence, cherry-pick (AID 588849)
Sequence of CAAX prenyl protease 2 (Q9Y256 whole entry): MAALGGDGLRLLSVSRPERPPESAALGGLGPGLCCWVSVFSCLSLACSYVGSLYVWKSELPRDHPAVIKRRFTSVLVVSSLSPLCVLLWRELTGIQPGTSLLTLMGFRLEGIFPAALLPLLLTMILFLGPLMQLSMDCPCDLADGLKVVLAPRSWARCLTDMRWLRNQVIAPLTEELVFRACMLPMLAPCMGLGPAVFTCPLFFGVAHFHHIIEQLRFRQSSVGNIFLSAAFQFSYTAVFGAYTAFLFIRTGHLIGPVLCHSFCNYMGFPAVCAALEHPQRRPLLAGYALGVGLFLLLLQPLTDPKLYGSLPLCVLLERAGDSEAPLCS

Sequence of Cytochrome P450 2C19 (P33261 whole entry): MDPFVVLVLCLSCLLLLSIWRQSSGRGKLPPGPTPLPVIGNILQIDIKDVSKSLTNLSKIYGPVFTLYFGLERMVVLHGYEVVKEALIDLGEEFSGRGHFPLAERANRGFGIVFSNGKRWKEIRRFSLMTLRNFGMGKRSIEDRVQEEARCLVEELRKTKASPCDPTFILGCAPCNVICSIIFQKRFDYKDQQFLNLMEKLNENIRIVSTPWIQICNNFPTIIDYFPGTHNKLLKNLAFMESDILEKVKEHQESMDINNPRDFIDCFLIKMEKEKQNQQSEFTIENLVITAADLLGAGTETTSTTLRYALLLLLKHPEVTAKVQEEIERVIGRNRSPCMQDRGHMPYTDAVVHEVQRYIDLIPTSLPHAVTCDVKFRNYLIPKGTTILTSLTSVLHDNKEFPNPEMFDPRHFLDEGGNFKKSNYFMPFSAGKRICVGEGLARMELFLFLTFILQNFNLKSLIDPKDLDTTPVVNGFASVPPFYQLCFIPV

- AC50 (Cytochrome P450 2C19): inconclusive
- AC50 (Cytochrome P450 2D6): inconclusive
Structure (SMILES): C[N+](C)(N)CCC[N+](C)(C)N

Structure (SMILES): CCc1nn(C(CC)C(=O)NCCc2ccc(OC)cc2OC)c(=O)c2cc3occc3n12 (centres undefined)
- EC50 (HEK293 [1]): > 59.6 µM (inactive)
- EC50 (HEK293 [2]): > 59.6 µM (inactive)

- EC50 (Mu-type opioid receptor): 15.6 µM (inactive)
- EC50 [3]: 0.0267 µM (active)
- EC50 [4]: > 92.5 µM (inactive)
- EC50 [5]: > 92.5 µM (inactive)
Structure (SMILES): Cc1cccc(NC(S)=NCC(c2cccnc2)N(C)C)c1 (centres undefined)

- AC50 (CAAX prenyl protease 2): 30 µM (active)
Structure (SMILES): Cc1ccc(CNC(=O)c2cc(-c3ccccc3)nn2CC2CC(c3cccc([N+](=O)[O-])c3)=NO2)cc1 (centres undefined)
